# Assay results published in patent publication US6204293A, “Inhibitors of protein isoprenyl transferases” (University of Pittsburgh, priority 1998, dated 2001).
# Where a name gives a salt, the structure may show the parent alone.
# Biological target: T1, Rat brain protein farnesyltransferase (Rattus norvegicus, UniProt Q02293+Q04631)
# T1 construct: Rat brain protein farnesyltransferase activity is measured; from tissue; host or cells: rat brain
# Assay: % inhibition of farnesylation, scintillation proximity assay with biotin-K Ras B fragment
# Type: biochemical
# Details: Table 2; 1 × 10^-6 M
# Method in brief: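 Scintillation proximity read-out of farnesylation, using a biotinylated K Ras B fragment (0.1 mM final) in place of biotin-lamin. Enzyme purified from rat brain; results given as % inhibition.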
# T1 sequence (Q02293 whole entry, one chain of several): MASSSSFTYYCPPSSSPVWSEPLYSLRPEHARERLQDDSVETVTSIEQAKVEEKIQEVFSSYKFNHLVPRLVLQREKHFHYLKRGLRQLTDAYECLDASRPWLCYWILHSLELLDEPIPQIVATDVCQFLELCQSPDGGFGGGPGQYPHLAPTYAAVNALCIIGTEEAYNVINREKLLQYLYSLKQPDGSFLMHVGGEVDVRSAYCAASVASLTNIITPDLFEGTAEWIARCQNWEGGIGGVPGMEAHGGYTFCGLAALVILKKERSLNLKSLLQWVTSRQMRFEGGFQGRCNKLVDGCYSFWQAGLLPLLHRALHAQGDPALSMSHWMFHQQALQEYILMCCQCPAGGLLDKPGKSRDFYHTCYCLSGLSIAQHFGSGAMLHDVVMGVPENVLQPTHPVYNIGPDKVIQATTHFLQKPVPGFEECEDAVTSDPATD
row,% inhibition at 1 × 10^-6 M,Compound
1,96%,CSCC[C@H](NC(=O)c1ccc(CNCCC2CCCCC2)cc1-c1ccccc1C)C(=O)O.O=C(O)C(F)(F)F [Example 607]
2,94%,CSCC[C@H](NC(=O)c1ccc(CN(CCC2CCCCC2)C(=O)N(C)C)cc1-c1ccccc1C)C(=O)O [Example 610]
3,97%,CSCC[C@H](NC(=O)c1ccc(CN[C@H](C)CC2CCCCC2)cc1-c1ccccc1C)C(=O)O [Example 613]
4,99%,CSCC[C@H](NC(=O)c1ccc(CN[C@H](CO)CC2CCCCC2)cc1-c1ccccc1C)C(=O)O [Example 617]
5,98%,CCS(=O)(=O)C[C@H](CC1CCCCC1)NCc1ccc(C(=O)N[C@@H](CCSC)C(=O)O)c(-c2ccccc2C)c1 [Example 620]
6,61%,CSCC[C@H](NC(=O)c1ccc(CNCCS)cc1-c1ccccc1)C(=O)O [Example 626]
7,85%,CSCC[C@H](NC(=O)c1ccc(CNCCSC(C)(C)C)cc1-c1ccccc1)C(=O)O [Example 627]
8,43%,CSCC[C@H](NC(=O)c1ccc(CNCC(O)CO)cc1-c1ccccc1)C(=O)O (stereo partly shown) [Example 632]

# Same assay, conditions: Table 3; 1 × 10^-7 M
row,Compound,% inhibition at 1 × 10^-7 M
1,CSCC[C@H](NC(=O)c1ccc(CN(CCC2CCCCC2)C(C)=O)cc1-c1ccccc1C)C(=O)[O-].[Li+] [Example 609],95%
2,CSCC[C@H](NC(=O)c1ccc(CNC(CC2CCCCC2)C2CCCCC2)cc1-c1ccccc1C)C(=O)[O-].[Li+] (stereo partly shown) [Example 616],95%

# The next lines start with the values.
row,% inhibition at 1 × 10^-7 M,Compound
1,86%,CSCC[C@H](NC(=O)c1ccc(CN[C@@H](CO)C2CCCCC2)cc1-c1ccccc1C)C(=O)O [Example 604]
2,95%,CSCC[C@H](NC(=O)c1ccc(CN(CCC2CCCCC2)S(C)(=O)=O)cc1-c1ccccc1C)C(=O)O [Example 611]
3,94%,CCCC[C@H](CC1CCCCC1)NCc1ccc(C(=O)N[C@@H](CCSC)C(=O)O)c(-c2ccccc2C)c1 [Example 615]
4,89%,CSCC[C@H](NC(=O)c1ccc(CN[C@@H](CO)CC2CCCCC2)cc1-c1ccccc1C)C(=O)O [Example 618]
5,98%,CCS(=O)(=O)C[C@H](CC1CCCCC1)NCc1ccc(C(=O)N[C@@H](CCS(C)(=O)=O)C(=O)O)c(-c2ccccc2C)c1 [Example 621]
6,95%,CSCC[C@H](NC(=O)c1ccc(CN[C@H](CSC(C)(C)C)CC2CCCCC2)cc1-c1ccccc1C)C(=O)O [Example 622]
7,96%,CSCC[C@H](NC(=O)c1ccc(CN[C@H](CSc2ccccc2)CC2CCCCC2)cc1-c1ccccc1C)C(=O)O [Example 623]

# Same assay, conditions: Table 4; 1 × 10^-8 M
row,% inhibition at 1 × 10^-8 M,Compound
1,91%,CSCC[C@H](NC(=O)c1ccc(CN(C)CCC2CCCCC2)cc1-c1ccccc1C)C(=O)[O-].[Li+] [Example 608]
2,96%,CSCC[C@H](NC(=O)c1ccc(CN(CCC2CCCCC2)S(=O)(=O)c2ccccc2)cc1-c1ccccc1C)C(=O)O [Example 612]
3,92%,CC[C@H](CC1CCCCC1)NCc1ccc(C(=O)N[C@@H](CCSC)C(=O)O)c(-c2ccccc2C)c1 [Example 614]
4,95%,C=C[C@H](CC1CCCCC1)NCc1ccc(C(=O)N[C@@H](CCSC)C(=O)O)c(-c2ccccc2C)c1 [Example 619]

row,Compound,% inhibition at 1 × 10^-8 M
1,CSCC[C@H](NC(=O)c1ccc(CN(CCC2CCCCC2)Cc2ccccc2)cc1-c1ccccc1C)C(=O)[O-].[Li+] [Example 605],68%

# Same assay, conditions: read-out: % inhibition at 1 × 10^-6 M
row,Compound,inhibition at 1 µM
1,"CSCC[C@H](NC(=O)c1ccc(COCc2ccccc2C)cc1-c1ccccc1C)C(=O)O [Example 577, N-[4-(2-methylbenzyloxymethyl)-2-(2-methylphenyl)benzoyl]methionine lithium salt]",94%
2,"CSCC[C@H](NC(=O)c1ccc(COCc2ccc3ccccc3c2)cc1-c1ccccc1C)C(=O)O [Example 583, N-[4-(naphth-2-ylmethoxymethyl)-2-(2-methylphenyl)benzoyl]methionine lithium salt]",98%
3,"CSCC[C@H](NC(=O)c1ccc(COCCc2ccccc2)cc1-c1ccccc1C)C(=O)O [Example 587, N-[4-(2-phenylethoxymethyl)-2-(2-methylphenyl)benzoyl]methionine lithium salt]",97%
4,"CSCC[C@H](NC(=O)c1ccc(COCCCc2ccccc2)cc1-c1ccccc1C)C(=O)O [Example 595, N-[4-(3-phenylpropoxymethyl)-2-(2-methylphenyl)benzoyl]methionine lithium salt]",97%

# Same assay, conditions: read-out: % inhibition at 1 × 10^-6 M; Table 2; 1 × 10^-6 M
row,inhibition at 1 µM,Compound
1,99%,"CSCC[C@H](NC(=O)c1ccc(COCc2ccccc2)cc1-c1ccccc1C)C(=O)NS(=O)(=O)c1ccc(C)cc1 [Example 582, 4-methylbenzenesulfonyl N-2-[4-(benzyloxymethyl)-2-(2-methylphenyl)benzoyl]amino-4-methylthiobutanamide]"

# Same assay, conditions: read-out: % inhibition at 1 × 10^-7 M
row,Compound,inhibition at 0.1 µM
1,"CSCC[C@H](NC(=O)c1ccc(COCc2cccc(C)c2)cc1-c1ccccc1C)C(=O)O [Example 578, N-[4-(3-methylbenzyloxymethyl)-2-(2-methylphenyl)benzoyl]methionine lithium salt]",90%
2,"CSCC[C@H](NC(=O)c1ccc(COCc2ccc(C)cc2)cc1-c1ccccc1C)C(=O)O [Example 579, N-[4-(4-methylbenzyloxymethyl)-2-(2-methylphenyl)benzoyl]methionine lithium salt]",92%
3,"CSCC[C@H](NC(=O)c1ccc(COCc2cccc3ccccc23)cc1-c1ccccc1C)C(=O)O [Example 584, N-[4-(naphth-1-ylmethoxymethyl)-2-(2-methylphenyl)benzoyl]methionine lithium salt]",96%
4,"CSCC[C@H](NC(=O)c1ccc(COCC2CCCCC2)cc1-c1ccccc1C)C(=O)O [Example 585, N-[4-(cyclohexylmethoxymethyl)-2-(2-methylphenyl)benzoyl]methionine lithium salt]",96%
5,"CSCC[C@H](NC(=O)c1ccc(COCCc2ccc(Cl)cc2)cc1-c1ccccc1C)C(=O)O [Example 590, N-[4-(2-(4-chlorophenyl)ethoxymethyl)-2-(2-methylphenyl)benzoyl]methionine lithium salt]",95%
6,"CSCC[C@H](NC(=O)c1ccc(COCCc2cccc3ccccc23)cc1-c1ccccc1C)C(=O)O [Example 592, N-[4-(2-naphth-1-ylethoxymethyl)-2-(2-methylphenyl)benzoyl]methionine lithium salt]",93%
7,"CSCC[C@H](NC(=O)c1ccc(COCCc2ccc3ccccc3c2)cc1-c1ccccc1C)C(=O)O [Example 593, N-[4-(2-naphth-2-ylethoxymethyl)-2-(2-methylphenyl)benzoyl]methionine lithium salt]",86%
8,"CSCC[C@H](NC(=O)c1ccc(COCCC2CCCCC2)cc1-c1ccccc1C)C(=O)O [Example 594, N-[4-(2-cyclohexylethoxymethyl)-2-(2-methylphenyl)benzoyl]methionine lithium salt]",95%
9,"CSCC[C@@H](C(=O)O)N(C)C(=O)c1ccc(COCCCC2CCCCC2)cc1-c1ccccc1C [Example 597, N-[4-(3-cyclohexylpropoxymethyl)-2-(2-methylphenyl)benzoyl]-N-methylmethionine lithium salt]",75%

# Same assay, conditions: read-out: % inhibition at 1 × 10^-7 M; Table 3; 1 × 10^-7 M
row,Compound,inhibition at 0.1 µM
1,CSCC[C@H](NC(=O)c1ccc(COCCCCC2CCCCC2)cc1-c1ccccc1C)C(=O)O [Example 600],93%
2,CSCC[C@H](NC(=O)c1ccc(COCCCCc2ccccc2)cc1-c1ccccc1C)C(=O)O [Example 601],92%

# The remaining lines, values ahead:
row,inhibition at 0.1 µM,Compound
1,90%,"CSCC[C@H](NC(=O)c1ccc(COCc2ccccc2)cc1-c1ccccc1C)C(=O)NS(=O)(=O)c1ccccc1 [Example 580, Benzenesulfonyl N-2-[4-(benzyloxymethyl)-2-(2-methylphenyl)benzoyl]amino-4-methylthiobutanamide]"
2,96%,"CSCC[C@H](NC(=O)c1ccc(COCc2ccccc2)cc1-c1ccccc1C)C(=O)NS(=O)(=O)c1ccc(Cl)cc1 [Example 581, 4-chlorobenzenesulfonyl N-2-[4-(benzyloxymethyl)-2-(2-methylphenyl)benzoyl]amino-4-methylthiobutanamide]"
3,91%,"COc1ccccc1CCOCc1ccc(C(=O)N[C@@H](CCSC)C(=O)O)c(-c2ccccc2C)c1 [Example 589, N-[4-(2-(2-methoxyphenyl)ethoxymethyl)-2-(2-methylphenyl)benzoyl]methioninelithium salt]"

# Same assay, conditions: read-out: % inhibition at 1 × 10^-8 M
row,Compound,inhibition at 0.01 µM
1,"CSCC[C@H](NC(=O)c1ccc(COCCc2ccccc2Cl)cc1-c1ccccc1C)C(=O)O [Example 588, N-[4-(2-(2-chlorophenyl)ethoxymethyl)-2-(2-methylphenyl)benzoyl]methionine lithium salt]",68%
2,"CSCC[C@H](NC(=O)c1ccc(COCCc2ccc(Cl)cc2Cl)cc1-c1ccccc1C)C(=O)O [Example 591, N-[4-(2-(2,4-dichlorophenyl)ethoxymethyl)-2-(2-methylphenyl)benzoyl]methionine lithium salt]",82%
3,"CSCC[C@H](NC(=O)c1ccc(COCCCC23CC4CC(CC(C4)C2)C3)cc1-c1ccccc1C)C(=O)O [Example 599, N-[4-(3-adamant-1-ylpropoxymethyl)-2-(2-methylphenyl)benzoyl]methionine lithium salt]",86%

# Same assay, conditions: read-out: % inhibition at 1 × 10^-8 M; Table 4; 1 × 10^-8 M
row,inhibition at 0.01 µM,Compound
1,90%,"CSCC[C@H](NC(=O)c1ccc(CSCc2ccccc2)cc1-c1ccccc1C)C(=O)NS(=O)(=O)c1ccc(C)cc1 [Example 586, 4-methylbenzenesulfonyl N-2-[4-(benzylthiomethyl)-2-(2-methylphenyl)benzoyl]amino-4-methylthiobutanamide]"
2,93%,"CCSC[C@H](CC1CCCCC1)OCc1ccc(C(=O)N[C@@H](CCSC)C(=O)O)c(-c2ccccc2C)c1 [Example 606, Lithium Salt]"
